Measurements published in PMC5487681, “Identification of Antifungal H^+-ATPase Inhibitors with Effect on Plasma Membrane Potential” (Antimicrobial Agents and Chemotherapy, 2017).
Converted amounts (≈) assume the structure as drawn. Read-outs that look alike come from different tables or passages of the source. Residues, ends and D or L forms follow the SMILES beside them.

How the values were obtained:
C. albicans Pma1 = target: T1, C. albicans Pma1 (Candida albicans, UniProt P28877); assay: ATP hydrolysis assay, C. albicans Pma1; assay type: biochemical
T1 construct: endogenous in cells
T1 sequence (P28877 whole entry): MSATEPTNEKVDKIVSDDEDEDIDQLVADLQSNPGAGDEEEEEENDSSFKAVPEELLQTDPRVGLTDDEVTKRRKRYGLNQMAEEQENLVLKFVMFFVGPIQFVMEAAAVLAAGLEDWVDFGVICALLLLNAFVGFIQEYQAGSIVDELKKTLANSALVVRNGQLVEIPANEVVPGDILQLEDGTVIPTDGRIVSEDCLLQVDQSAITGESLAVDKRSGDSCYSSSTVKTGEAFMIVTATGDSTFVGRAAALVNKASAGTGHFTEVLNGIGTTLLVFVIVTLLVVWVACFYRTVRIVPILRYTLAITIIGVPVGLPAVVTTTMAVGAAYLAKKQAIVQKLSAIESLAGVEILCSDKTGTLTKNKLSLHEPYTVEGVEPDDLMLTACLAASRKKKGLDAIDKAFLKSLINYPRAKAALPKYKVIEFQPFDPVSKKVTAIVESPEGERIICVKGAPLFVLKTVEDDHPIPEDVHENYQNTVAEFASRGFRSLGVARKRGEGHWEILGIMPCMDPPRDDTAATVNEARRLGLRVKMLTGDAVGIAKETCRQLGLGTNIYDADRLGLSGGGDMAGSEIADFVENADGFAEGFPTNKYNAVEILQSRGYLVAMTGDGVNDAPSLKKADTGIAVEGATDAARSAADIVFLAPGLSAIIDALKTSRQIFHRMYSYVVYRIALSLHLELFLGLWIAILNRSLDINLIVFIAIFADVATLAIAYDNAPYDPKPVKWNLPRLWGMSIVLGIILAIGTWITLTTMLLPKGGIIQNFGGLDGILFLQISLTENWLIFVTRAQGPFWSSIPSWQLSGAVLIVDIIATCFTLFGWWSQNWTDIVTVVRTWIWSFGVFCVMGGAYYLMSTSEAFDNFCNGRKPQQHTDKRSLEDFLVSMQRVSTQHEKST
Method: A 100-ml overnight culture in YPD medium [10 g/liter yeast extract (BD, Sparks, MD), 20 g/liter Bacto peptone (BD), 20 g/liter D-(+)-glucose] was transferred to 1 liter YPD medium and grown at room temperature and 150 rpm for 18 h for wild-type S. cerevisiae (ATCC 9763) and 7 h for C. albicans. The cells were harvested and washed in Milli-Q H2O by centrifugation at 3,360 × g. The cells were glucose activated by the addition of 10% D-(+)-glucose for 10 min while shaking. The cells were then centrifuged at 3,360 × g for 3 min and frozen. Cells (60 to 80 g, wet weight) were then disrupted by bead beating (BioSpec, Bartlesville, OK) and processed as described in reference to prepare the plasma membranes. […] All batches were validated by ATPase hydrolysis activity, pH optimum, and orthovanadate sensitivity.
The protein activity levels were determined by measuring the amount of free phosphate produced from the ATP hydrolysis reaction. The assay was performed as described in reference. Each well contained ATPase enzyme, 2 μl of inhibitor (usually in the range of 333 to 0.01 μM) dissolved in dimethyl sulfoxide (DMSO) (Duchefa Biochemie, Haarlem, The Netherlands), and an assay buffer dependent on the enzyme for a final volume of 60 μl. Possible compound precipitation in the assay buffer was monitored using a Nephelostar plate reader measuring turbidity, and the information was taken into account in the IC50 determination. Pma1 assay buffer consisted of 20 mM 3-(N-morpholino)propanesulfonic acid (MOPS)–NaOH, pH 6.5 or 7.0, 8 mM MgSO4, 50 mM KNO3 (a vacuolar ATPase inhibitor), 25 mM sodium azide (a mitochondrial ATPase inhibitor), and 250 μM sodium molybdate (an acid phosphatase inhibitor). SERCA buffer consisted of 9 mM MOPS-NaOH, pH 7, 2.7 mM MgCl2, 90 μM CaCl2, and 72 mM KCl. Na^+,K^+-ATPase buffer consisted of 30 mM MOPS-NaOH, pH 7, 40 mM NaCl, 4 mM MgCl2, and 20 mM KCl. The concentration of protein was adjusted to obtain a signal of the optical density at 860 nm (OD860) of between 0.5 and 1.0 in the untreated samples (for all Pma1 batches, ∼1 to 2 μg/well; for SERCA and Na^+,K^+-ATPase, ∼0.1 to 0.2 μg/well). BM2 ([…]-NH2, D-form amino acids) was custom synthesized by Peptide 2.0 (Chantilly, VA).

Na^+,K^+-ATPase = target: T2, Na^+,K^+-ATPase (Sus scrofa, UniProt P05024); assay: ATP hydrolysis assay, Na+,K+-ATPase; assay type: biochemical, porcine
T2 construct: from tissue; host or cells: porcine kidney (gift of Natalya Fedosova, Aarhus University)
Method: Rabbit sarcoplasmic reticulum membranes containing sarcoplasmic endoplasmic reticulum Ca^2+-ATPase (SERCA) were kindly provided by Claus E. Olesen and Jesper V. Møller, Aarhus University, and prepared as described in reference. Porcine kidney Na^+,K^+-ATPase was kindly provided by Natalya Fedosova, Aarhus University, and prepared as described in reference.
The protein activity levels were determined by measuring the amount of free phosphate produced from the ATP hydrolysis reaction. The assay was performed as described in reference. Each well contained ATPase enzyme, 2 μl of inhibitor (usually in the range of 333 to 0.01 μM) dissolved in dimethyl sulfoxide (DMSO) (Duchefa Biochemie, Haarlem, The Netherlands), and an assay buffer dependent on the enzyme for a final volume of 60 μl. Possible compound precipitation in the assay buffer was monitored using a Nephelostar plate reader measuring turbidity, and the information was taken into account in the IC50 determination. Pma1 assay buffer consisted of 20 mM 3-(N-morpholino)propanesulfonic acid (MOPS)–NaOH, pH 6.5 or 7.0, 8 mM MgSO4, 50 mM KNO3 (a vacuolar ATPase inhibitor), 25 mM sodium azide (a mitochondrial ATPase inhibitor), and 250 μM sodium molybdate (an acid phosphatase inhibitor). SERCA buffer consisted of 9 mM MOPS-NaOH, pH 7, 2.7 mM MgCl2, 90 μM CaCl2, and 72 mM KCl. Na^+,K^+-ATPase buffer consisted of 30 mM MOPS-NaOH, pH 7, 40 mM NaCl, 4 mM MgCl2, and 20 mM KCl. The concentration of protein was adjusted to obtain a signal of the optical density at 860 nm (OD860) of between 0.5 and 1.0 in the untreated samples (for all Pma1 batches, ∼1 to 2 μg/well; for SERCA and Na^+,K^+-ATPase, ∼0.1 to 0.2 μg/well).

[1] = system: Candida parapsilosis ATCC 22019; assay: microbe, parasite or virus in culture; conditions: for MIC: Lodderomyces parapsilosis
Method: (§1) The following fungal isolates were used: Saccharomyces cerevisiae ATCC 9763, Candida albicans SC5314, Candida parapsilosis ATCC 22019, Candida tropicalis Ct016, Candida glabrata ATCC 90030, Aspergillus fumigatus ATCC 13073, and Aspergillus flavus ATCC MYA-1005. Frozen stocks of yeast isolates in glycerol (final concentration, 20%) were prepared by growing the cells to log phase in YPD medium at 30°C and 150 rpm. Frozen stocks of mold spores were prepared by harvesting spores from 7-day-old potato glucose agar plates in phosphate-buffered saline, 0.1% Tween 80 and aliquoting these spores in the presence of glycerol (final concentration, 20%). The cells were stored at −80°C. The cells or spores were thawed and diluted to a final concentration of 0.5 × 10^5 to 2.5 × 10^5 CFU/ml in sterile Milli-Q H2O. […] The plate was incubated for 20 to 24 h at 34°C (72 h for molds), and the OD490 was measured on a Victor X5 (PerkinElmer) plate reader. Mold growth assay plates were also visually inspected. The MIC was defined as the lowest concentration inhibiting the visual growth of the microorganism.

Candida albicans SC5314 = assay: microbe, parasite or virus in culture; conditions: for MIC: Candida albicans
Method: as §1

[2] = Table 2, pH 7, n = 2, read-out: IC50 for ATP hydrolysis, C. albicans Pma1
[3] = read-out: IC50 for the Pma1 enzyme from C. albicans
[4] = Table 1, ATP hydrolysis at pH 7.4 (compounds marked b), read-out: IC50 Na^+,K^+-ATPase
[5] = ATCC22019, pH 7, read-out: MIC C. parapsilosis
[6] = SC5314, pH 7, read-out: MIC C. albicans
[7] = Table 1, ATP hydrolysis at pH 7, read-out: IC50 Na^+,K^+-ATPase
[8] = ATCC22019, read-out: MIC for growth inhibition, C. parapsilosis
[9] = SC5314, read-out: Growth inhibition MIC, C. albicans in RPMI
[10] = SC5314, read-out: MIC for growth inhibition, C. albicans
[11] = Table 2, pH 7, n = 2, porcine kidney, read-out: IC50 for ATP hydrolysis, Na^+,K^+-ATPase

Row | SMILES | IC50 (C. albicans Pma1; [2]) [µM] | MIC [1, 5] [µM] | MIC (Candida albicans SC5314; [6]) [µM] | IC50 (Na^+,K^+-ATPase; [7]) [µM] | MIC [1, 8] [µM] | MIC (Candida albicans SC5314; [9]) [µM] | MIC (Candida albicans SC5314; [10]) [µM] | IC50 (Na^+,K^+-ATPase; [11]) [µM] | other results
1 | N=C(N)NCCC[C@@H](N)C(=O)N[C@H](CCCNC(=N)N)C(=O)N[C@H](CCCNC(=N)N)C(=O)N[C@H](Cc1ccccc1)C(=O)N[C@H](Cc1c[nH]c2ccccc12)C(=O)N[C@H](Cc1c[nH]c2ccccc12)C(=O)N[C@H](Cc1ccccc1)C(=O)N[C@H](CCCNC(=N)N)C(=O)N[C@H](CCCNC(=N)N)C(=O)N[C@H](CCCNC(=N)N)C(N)=O [BM2, reference compound] (HELM PEPTIDE1{[dR].[dR].[dR].[dF].[dW].[dW].[dF].[dR].[dR].[dR].[am]}$$$$V2.0) | 0.9 ± 0.2 |  |  |  |  |  |  |  | IC50 (C. albicans Pma1; [3]): 0.9 µM; IC50 (Na^+,K^+-ATPase): 10.4 ± 2.7 µM; MIC for growth inhibition, C. parapsilosis ([1]; ATCC 22019): 26 µM; MIC for growth inhibition, C. albicans (Candida albicans SC5314; SC5314): 15 µM
2 | O=C1/C(=C/c2ccc(-c3cc(Cl)ccc3Cl)o2)C=C(c2ccccc2)N1c1ccccc1O [Compound 1] |  | > 150 | > 150 |  |  |  |  |  | IC50 (Na^+,K^+-ATPase; [4]): 13.2 ± 0.91 µM
3 | COc1ccc(-c2cc(C(=O)Nc3ccc(C(C)C)cc3)c3ccccc3n2)c(OC)c1 [Compound 3] |  | > 150 | > 150 | > 105 |  |  |  |  | 
4 | CC1CCCCN1CC(O)Cn1c(-c2ccccc2)c(-c2ccccc2)c2ccc3ccccc3c21 (centres unmarked) [Compound 4] |  | > 38 | 13 (≈ 6.17 µg/mL) |  |  |  |  |  | IC50 (Na^+,K^+-ATPase; [4]): 15 ± 7.2 µM
5 | CCOc1ccc2nc3cc(NC(=O)c4cccc(Br)c4)ccc3c(N)c2c1 [Compound 5] |  | 7.5 (≈ 3.27 µg/mL) | 6.5 (≈ 2.84 µg/mL) |  |  |  |  |  | IC50 (Na^+,K^+-ATPase; [4]): 1.3 ± 0.3 µM
6 | Cc1c(-c2ccccc2)[o+]c2ccccc2c1C#Cc1ccccc1 [Compound 6] |  | > 150 | > 150 |  |  |  |  |  | IC50 (Na^+,K^+-ATPase; [4]): 3.5 ± 3.7 µM
7 | Oc1cccc(Nc2nc(-c3ccc(Cl)c(Cl)c3)cs2)c1 [Compound 7] |  | 8.2 (≈ 2.77 µg/mL) | 7.3 (≈ 2.46 µg/mL) |  |  |  |  |  | IC50 (Na^+,K^+-ATPase; [4]): 5.8 ± 0.8 µM
8 | COc1ccc(-c2cc(C(=O)Nc3ccc4c(c3)OCCO4)c3ccccc3n2)c(OC)c1 [Compound 8] |  | > 38 | > 38 | > 105 |  |  |  |  | 
9 | COc1cccc(Nc2nc(Cl)nc(Nc3cccc(OC)c3)n2)c1 [Compound 9] |  | > 150 | > 150 | > 105 |  |  |  |  | 
10 | CCCCOc1ccc(C2C(C#N)=C(N)Oc3cc(O)ccc32)cc1 (centres unmarked) [Compound 11] |  | > 150 | > 150 | 30.3 ± 2.4 |  |  |  |  | 
11 | COc1ccc(Cn2c(SCc3cc(C)ccc3C)nc3cc(OC)c(OC)cc3c2=N)cc1 [Compound 12] |  | > 150 | 12 (≈ 5.71 µg/mL) | 58.7 ± 40.2 |  |  |  |  | 
12 | CCCCc1nc2sc3c(NCCCN(C)C)ncnc3c2c2c1CCCC2 [Compound 14] | 17 ± 0.9 | 24 (≈ 9.54 µg/mL) | 36 (≈ 14.3 µg/mL) | 18.4 ± 2.1 | 24 (≈ 9.54 µg/mL) | 36 (≈ 14.3 µg/mL) | 36 (≈ 14.3 µg/mL) |  | IC50 (C. albicans Pma1; [3]): 17 µM
13 | CCCCc1nc2sc3c(NCCCN(C)C)nc(SC)nc3c2c2c1CCC2 [Compound 15] | 6.3 ± 0.5 |  |  |  | 15 (≈ 6.44 µg/mL) | 4.8 (≈ 2.06 µg/mL) | 4.8 (≈ 2.06 µg/mL) | 4.1 ± 0.6 | 
14 | CN(C)CCCNc1ncnc2c1sc1nc(N3CCCCC3)c3c(c12)CCCC3 [Compound 16] | 9.5 ± 1 |  |  |  | 15 (≈ 6.37 µg/mL) | 15 (≈ 6.37 µg/mL) | 15 (≈ 6.37 µg/mL) | 9.1 ± 1 | 
15 | CCc1nc2sc3c(NCCCN(C)C)ncnc3c2c2c1CCCC2 [Compound 17] | 151 ± 6.2 |  |  |  | 150 (≈ 55.4 µg/mL) | 150 (≈ 55.4 µg/mL) | 150 (≈ 55.4 µg/mL) | > 333 | 
16 | CN(C)CCCNc1ncnc2c1sc1nc(-c3ccccc3)c3c(c12)CCC3 [Compound 18] | 22.9 ± 2 |  |  |  | 24 (≈ 9.69 µg/mL) | 75 (≈ 30.3 µg/mL) | 75 (≈ 30.3 µg/mL) | 85.7 ± 26.6 | 
17 | CCN(CC)CCCNc1nc(SC)nc2c1sc1nc(-c3ccccc3)c3c(c12)CCC3 [Compound 19] | 8.7 ± 0.5 |  |  |  | 3.7 (≈ 1.77 µg/mL) | 7 (≈ 3.34 µg/mL) | 6 (≈ 2.87 µg/mL) | 5.5 ± 1.8 | IC50 (C. albicans Pma1; [3]): 9 µM
18 | O=c1c2ccccc2[se]n1-c1ccccc1 [Ebselen, reference compound] |  |  |  |  | 24 (≈ 6.58 µg/mL) |  | 7.5 (≈ 2.06 µg/mL) | 0.16 ± 0.01 | IC50 (C. albicans Pma1; IC50 for ATP hydrolysis, C. albicans Pma1, Table 2, pH 7, n = 2): 0.51 ± 0.04 µM
19 | [O]=[V]([O-])([O-])[O-] [Vanadate, reference compound] | 0.23 ± 0.05 |  |  |  |  |  |  | 0.006 ± 0.001 | MIC for growth inhibition, C. parapsilosis ([1]; Table 3): >750 µM; MIC for growth inhibition, C. albicans (Candida albicans SC5314; Table 3): >750 µM
